In ChEMBL document CHEMBL3885881, “DrugMatrix”:
“And” between values parts separate entries of the source, which are not always exact repeats. Identical values can stand only once.

Species on record: Rattus norvegicus
Experiment: DrugMatrix - Regimen: Daily Repeat
Assay type: toxicity, organism-based, Sprague-Dawley
Design: regimen Daily Repeat, gender Male, age 6-8 weeks
Conditions: in vivo, ip, route intraperitoneal, vehicle 100 % SALINE; for SODIUM / TOTAL BILIRUBIN / TOTAL PROTEIN / URIC ACID / ALANINE AMINOTRANSFERASE / ALBUMIN / ALKALINE PHOSPHATASE / ASPARTATE AMINOTRANSFERASE / BLOOD UREA NITROGEN / CARBON DIOXIDE / CHLORIDE / CHOLESTEROL / CREATINE PHOSPHOKINASE / CREATININE / GLUCOSE / LACTATE DEHYDROGENASE / LIPASE / PHOSPHORUS / POTASSIUM: tissue Plasma; for ABSOLUTE BASOPHIL / ABSOLUTE EOSINOPHIL / ABSOLUTE LYMPHOCYTE / ABSOLUTE MONOCYTE / ABSOLUTE SEGMENTED NEUTROPHIL / BASOPHIL / EOSINOPHIL / ERYTHROCYTE COUNT / HEMATOCRIT / LEUKOCYTE COUNT / LYMPHOCYTE / MEAN CORPUSCULAR HEMOGLOBIN / MEAN CORPUSCULAR HEMOGLOBIN CONCENTRATION / MEAN CORPUSCULAR VOLUME / MONOCYTE / NEUTROPHIL / PLATELET COUNT: tissue Blood
[1] = 0 mg/kg, […], dose level Control, time 28 day
[2] = 8 mg/kg, 120 h, dose level High, time 5 day
[3] = 8 mg/kg, […], dose level High, time 14 day
[4] = 8 mg/kg, […], dose level High, time 28 day

With GOLD SODIUM THIOMALATE the SODIUM [1] was 149.5 MEQ/L, the “TOTAL BILIRUBIN” value [1] was 0.21 mg/dL and the “TOTAL PROTEIN” value [1] was 6.66 G/DL. For the same substance, the “URIC ACID” value [1] was 1.26 mg/dL, the ABSOLUTE BASOPHIL [2] was 130 cells/µL and the ABSOLUTE EOSINOPHIL [2] was 56 cells/µL. For the same substance, the ABSOLUTE LYMPHOCYTE [2] was 9210 cells/µL, the ABSOLUTE MONOCYTE [2] was 260 cells/µL and the ABSOLUTE SEGMENTED NEUTROPHIL [2] was 1220 cells/µL. For the same substance, the BASOPHIL [2] was 1.14% and 0.55%, the EOSINOPHIL [2] was 0.52% and 0.85% and the “ERYTHROCYTE COUNT” value [2] was 7.23 x10E6/uL and 7.38 x10E6/uL. For the same substance, the HEMATOCRIT [2] was 44.18% and 47.65%, the “LEUKOCYTE COUNT” value [2] was 10.96 x10E3/uL and 5.99 x10E3/uL and the LYMPHOCYTE [2] was 83.86% and 79.83%. For the same substance, the “MEAN CORPUSCULAR HEMOGLOBIN” value [2] was 19.96 pg and 20.48 pg, the “MEAN CORPUSCULAR HEMOGLOBIN CONCENTRATION” value [2] was 32.6 G/DL and 31.73 G/DL and the “MEAN CORPUSCULAR VOLUME” value [2] was 64.58 fL. For the same substance, the MONOCYTE [2] was 2.34% and 2.35%, the NEUTROPHIL [2] was 11.32% and 14.95% and the “PLATELET COUNT” value [2] was 1423.2 x10E3/uL and 1443.75 x10E3/uL. For the same substance, the “ALANINE AMINOTRANSFERASE” value [2] was 32.8 u/L and 21 u/L, the ALBUMIN [2] was 3.28 G/DL and the “ALKALINE PHOSPHATASE” value [2] was 176.2 u/L and 278.5 u/L. For the same substance, the “ASPARTATE AMINOTRANSFERASE” value [2] was 100.4 u/L and 71 u/L, the “BLOOD UREA NITROGEN” value [2] was 18.2 mg/dL and 15.25 mg/dL and the “CARBON DIOXIDE” value [2] was 27 mmol/L. The CHLORIDE [2] was 106.6 MEQ/L and 106.75 MEQ/L, the CHOLESTEROL [2] was 68.4 mg/dL and 52.25 mg/dL and the “CREATINE PHOSPHOKINASE” value [2] was 159.5 u/L and 253 u/L. For the same substance, the CREATININE [2] was 0.52 mg/dL and 0.45 mg/dL, the GLUCOSE [2] was 124.5 mg/dL and the “LACTATE DEHYDROGENASE” value [2] was 57.5 u/L and 107.5 u/L. For the same substance, the LIPASE [2] was 28.8 u/L and 9.75 u/L, the PHOSPHORUS [2] was 9.6 mg/dL and 11.85 mg/dL and the POTASSIUM [2] was 5.78 MEQ/L and 5.65 MEQ/L. For the same substance, the SODIUM [2] was 150.8 MEQ/L and 151.5 MEQ/L, the “TOTAL BILIRUBIN” value [2] was 0.18 mg/dL and 0.32 mg/dL and the “TOTAL PROTEIN” value [2] was 5.68 G/DL and 6.25 G/DL. For the same substance, the “URIC ACID” value [2] was 1.38 mg/dL and 2.12 mg/dL, the ABSOLUTE BASOPHIL [3] was 34 cells/µL and the ABSOLUTE EOSINOPHIL [3] was 82 cells/µL. It also gave an ABSOLUTE LYMPHOCYTE [3] of 8830 cells/µL, an ABSOLUTE MONOCYTE [3] of 250 cells/µL and an ABSOLUTE SEGMENTED NEUTROPHIL [3] of 1460 cells/µL. For the same substance, the “MEAN CORPUSCULAR HEMOGLOBIN” value [3] was 20.12 pg, the ABSOLUTE BASOPHIL [4] was 110 cells/µL and the ABSOLUTE EOSINOPHIL [4] was 71 cells/µL. The ABSOLUTE LYMPHOCYTE [4] was 9610 cells/µL, the ABSOLUTE MONOCYTE [4] was 180 cells/µL and the ABSOLUTE SEGMENTED NEUTROPHIL [4] was 1180 cells/µL. For the same substance, the BASOPHIL [4] was 0.95%, the EOSINOPHIL [4] was 0.64% and the “ERYTHROCYTE COUNT” value [4] was 7.92 x10E6/uL. The HEMATOCRIT [4] was 45.49%, the “LEUKOCYTE COUNT” value [4] was 11.2 x10E3/uL and the LYMPHOCYTE [4] was 85.54%. The “MEAN CORPUSCULAR HEMOGLOBIN” value [4] was 18.71 pg, the “MEAN CORPUSCULAR HEMOGLOBIN CONCENTRATION” value [4] was 32.56 G/DL and the “MEAN CORPUSCULAR VOLUME” value [4] was 57.51 fL. For the same substance, the MONOCYTE [4] was 1.65%, the NEUTROPHIL [4] was 10.78% and the “PLATELET COUNT” value [4] was 1410.8 x10E3/uL. The “CARBON DIOXIDE” value [3] was 25 mmol/L, the CHLORIDE [3] was 108.6 MEQ/L and the “ALANINE AMINOTRANSFERASE” value [4] was 33.3 u/L. For the same substance, the ALBUMIN [4] was 3.51 G/DL, the “ALKALINE PHOSPHATASE” value [4] was 144.9 u/L and the “ASPARTATE AMINOTRANSFERASE” value [4] was 73.8 u/L. The “BLOOD UREA NITROGEN” value [4] was 12.7 mg/dL, the CHLORIDE [4] was 107.3 MEQ/L and the CHOLESTEROL [4] was 48.9 mg/dL. The “CREATINE PHOSPHOKINASE” value [4] was 237.4 u/L, the CREATININE [4] was 0.61 mg/dL and the GLUCOSE [4] was 141.1 mg/dL. The “LACTATE DEHYDROGENASE” value [4] was 100.8 u/L, the LIPASE [4] was 13.2 u/L and the PHOSPHORUS [4] was 9.57 mg/dL. For the same substance, the POTASSIUM [4] was 6.28 MEQ/L, the SODIUM [4] was 150 MEQ/L and the “TOTAL BILIRUBIN” value [4] was 0.2 mg/dL. For the same substance, the “TOTAL PROTEIN” value [4] was 6.4 G/DL and the “URIC ACID” value [4] was 1.22 mg/dL.
